Experimental data taken from the supplement of paper PMC10627819.

Key:
S. pneumoniae D39V [1] = assay: Bliss interaction score (quartile over a dose matrix) (fitness difference); higher = more antagonism (negative = synergy)
In short: (§1)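 The Bliss score takes observed fitness and subtracts the expected fitness, calculated as a product of single-drug fitness values. Those single-drug values were inferred from the combination data. Fitness is OD595 at entry into stationary phase divided by the plate's robust no-drug mean, capped at 1, and the score is summarised by quartiles across technical, biological and donor/recipient replicates.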

S. aureus DSM 20231 [2] = assay: as above
In short: as §1

S. aureus Newman [3] = assay: as above
In short: as §1

B. subtilis 168 [4] = assay: as above
In short: as §1

S. pneumoniae D39V [5] = assay: fitness (endpoint OD595 vs no drug) (fraction); higher = more growth
In short: (§2)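 Fitness expresses the optical density reached at the stationary-phase transition as a fraction of the robust mean of no-drug control wells. It is capped at 1. Measurements were OD595 every 30 min for 14 h at 37 °C after inoculation of 384-well plates at OD595 0.01 (30 µl, or 55 µl for S. pneumoniae), minus the first reading.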

S. aureus DSM 20231 [6] = assay: as above
In short: as §2

S. aureus Newman [7] = assay: as above
In short: as §2

B. subtilis 168 [8] = assay: as above
In short: as §2
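Wherever Bliss interaction score (quartile over a dose matrix) is given: first quartile when negative (synergy) and third quartile when positive (antagonism).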
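Wherever fitness (endpoint OD595 vs no drug) is given: OD595 on entry to stationary phase over no-drug wells; at most 1.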

Cc1ncc([N+](=O)[O-])n1CCO [Metronidazole] + C[n+]1ccc(-c2cc[n+](C)cc2)cc1 [Paraquat]
Conditions	Bliss interaction score
B. subtilis 168 [4]	0.0442
S. aureus DSM 20231 [2]	0.0478
S. aureus Newman [3]	0.0779
S. pneumoniae D39V [1]	-0.0431

fitness
Conditions	first compound 0.625 µg/mL	first compound 1.073 µg/mL	first compound 1.25 µg/mL	first compound 2.145 µg/mL	first compound 2.5 µg/mL	first compound 4.29 µg/mL
B. subtilis 168 [8], partner 1.25 µg/mL	0.973	–	0.949	–	0.917	–
B. subtilis 168 [8], partner 2.5 µg/mL	0.957	–	0.929	–	0.917	–
B. subtilis 168 [8], partner 5 µg/mL	0.851	–	0.864	–	0.851	–
S. aureus DSM 20231 [6], partner 1.25 µg/mL	0.97	–	≥ 1	–	≥ 1	–
S. aureus DSM 20231 [6], partner 2.5 µg/mL	0.954	–	≥ 1	–	≥ 1	–
S. aureus DSM 20231 [6], partner 5 µg/mL	0.955	–	0.978	–	≥ 1	–
S. aureus Newman [7], partner 1.25 µg/mL	0.936	–	0.875	–	0.862	–
S. aureus Newman [7], partner 2.5 µg/mL	0.944	–	0.934	–	0.963	–
S. aureus Newman [7], partner 5 µg/mL	0.888	–	0.932	–	0.973	–
S. pneumoniae D39V [5], partner 1.5 µg/mL	–	0.969	–	0.958	–	0.899
S. pneumoniae D39V [5], partner 3 µg/mL	–	0.999	–	0.905	–	0.95
S. pneumoniae D39V [5], partner 6 µg/mL	–	0.982	–	0.803	–	0.912

fitness, one replicate
Conditions	first compound 0.781 µg/mL	first compound 1.25 µg/mL	first compound 1.562 µg/mL	first compound 2.5 µg/mL	first compound 3.124 µg/mL	first compound 5 µg/mL
S. aureus Newman [7], partner 1.25 µg/mL	0.916	–	0.899	–	0.844	–
S. aureus Newman [7], partner 2.5 µg/mL	0.951	–	0.874	–	0.908	–
S. aureus Newman [7], partner 5 µg/mL	0.919	–	0.907	–	0.984	–
S. pneumoniae D39V [5], partner 1.5 µg/mL	–	0.983	–	≥ 1	–	≥ 1
S. pneumoniae D39V [5], partner 3 µg/mL	–	0.99	–	≥ 1	–	≥ 1
S. pneumoniae D39V [5], partner 6 µg/mL	–	≥ 1	–	≥ 1	–	≥ 1

C[C@@H]1O[C@@H]1P(=O)(O)O [Fosfomycin] + COc1c(N2C[C@@H]3CCCN[C@@H]3C2)c(F)cc2c(=O)c(C(=O)O)cn(C3CC3)c12 [Moxifloxacin]
Conditions	Bliss interaction score
B. subtilis 168 [4]	-0.0148
S. aureus DSM 20231 [2]	0.0661
S. aureus Newman [3]	-0.0851
S. pneumoniae D39V [1]	0.0534

Conditions	fitness
B. subtilis 168 [8], first compound 1.562 µg/mL, partner 0.0312 µg/mL	0.0743
B. subtilis 168 [8], first compound 1.562 µg/mL, partner 0.0625 µg/mL	0.0627
B. subtilis 168 [8], first compound 1.562 µg/mL, partner 0.125 µg/mL	0.0277
B. subtilis 168 [8], first compound 1.562 µg/mL, partner 2 µg/mL	0.0303
B. subtilis 168 [8], first compound 1.562 µg/mL, partner 4 µg/mL	0.0293
B. subtilis 168 [8], first compound 1.562 µg/mL, partner 8 µg/mL	0.0076
B. subtilis 168 [8], first compound 3.124 µg/mL, partner 0.0312 µg/mL	0.0504
B. subtilis 168 [8], first compound 3.124 µg/mL, partner 0.0625 µg/mL	0.0309
B. subtilis 168 [8], first compound 3.124 µg/mL, partner 0.125 µg/mL	0.0339
B. subtilis 168 [8], first compound 3.124 µg/mL, partner 2 µg/mL	0.033
B. subtilis 168 [8], first compound 3.124 µg/mL, partner 4 µg/mL	0.0332
B. subtilis 168 [8], first compound 3.124 µg/mL, partner 8 µg/mL	0.0176
B. subtilis 168 [8], first compound 6.248 µg/mL, partner 0.0312 µg/mL	0.0469
B. subtilis 168 [8], first compound 6.248 µg/mL, partner 0.0625 µg/mL	0.0265
B. subtilis 168 [8], first compound 6.248 µg/mL, partner 0.125 µg/mL	0.0207
B. subtilis 168 [8], first compound 6.248 µg/mL, partner 2 µg/mL	0.016
B. subtilis 168 [8], first compound 6.248 µg/mL, partner 4 µg/mL	0.0083
B. subtilis 168 [8], first compound 6.248 µg/mL, partner 8 µg/mL	0.0062
S. aureus DSM 20231 [6], first compound 0.781 µg/mL, partner 0.0075 µg/mL	0.629
S. aureus DSM 20231 [6], first compound 0.781 µg/mL, partner 0.015 µg/mL	0.609
S. aureus DSM 20231 [6], first compound 0.781 µg/mL, partner 0.03 µg/mL	0.606
S. aureus DSM 20231 [6], first compound 1.562 µg/mL, partner 0.0075 µg/mL	0.592
S. aureus DSM 20231 [6], first compound 1.562 µg/mL, partner 0.015 µg/mL	0.564
S. aureus DSM 20231 [6], first compound 1.562 µg/mL, partner 0.03 µg/mL	0.538
S. aureus DSM 20231 [6], first compound 3.124 µg/mL, partner 0.0075 µg/mL	0.493
S. aureus DSM 20231 [6], first compound 3.124 µg/mL, partner 0.015 µg/mL	0.455
S. aureus DSM 20231 [6], first compound 3.124 µg/mL, partner 0.03 µg/mL	0.299
S. aureus Newman [7], first compound 0.781 µg/mL, partner 0.0075 µg/mL	0.587
S. aureus Newman [7], first compound 0.781 µg/mL, partner 0.015 µg/mL	0.509
S. aureus Newman [7], first compound 0.781 µg/mL, partner 0.03 µg/mL	0.0675
S. aureus Newman [7], first compound 1.562 µg/mL, partner 0.0075 µg/mL	0.413
S. aureus Newman [7], first compound 1.562 µg/mL, partner 0.015 µg/mL	0.358
S. aureus Newman [7], first compound 1.562 µg/mL, partner 0.03 µg/mL	0.0359
S. aureus Newman [7], first compound 3.124 µg/mL, partner 0.0075 µg/mL	0.0916
S. aureus Newman [7], first compound 3.124 µg/mL, partner 0.015 µg/mL	0.0267
S. aureus Newman [7], first compound 3.124 µg/mL, partner 0.03 µg/mL	0.015
S. pneumoniae D39V [5], first compound 1.25 µg/mL, partner 0.005 µg/mL	0.985
S. pneumoniae D39V [5], first compound 1.25 µg/mL, partner 0.01 µg/mL	0.988
S. pneumoniae D39V [5], first compound 1.25 µg/mL, partner 0.02 µg/mL	0.924
S. pneumoniae D39V [5], first compound 1.25 µg/mL, partner 0.0312 µg/mL	0.139
S. pneumoniae D39V [5], first compound 1.25 µg/mL, partner 0.0625 µg/mL	0.0679
S. pneumoniae D39V [5], first compound 1.25 µg/mL, partner 0.125 µg/mL	0.0548
S. pneumoniae D39V [5], first compound 2.5 µg/mL, partner 0.005 µg/mL	0.93
S. pneumoniae D39V [5], first compound 2.5 µg/mL, partner 0.01 µg/mL	0.983
S. pneumoniae D39V [5], first compound 2.5 µg/mL, partner 0.02 µg/mL	0.903
S. pneumoniae D39V [5], first compound 2.5 µg/mL, partner 0.0312 µg/mL	0.12
S. pneumoniae D39V [5], first compound 2.5 µg/mL, partner 0.0625 µg/mL	0.0706
S. pneumoniae D39V [5], first compound 2.5 µg/mL, partner 0.125 µg/mL	0.0382
S. pneumoniae D39V [5], first compound 5 µg/mL, partner 0.005 µg/mL	0.808
S. pneumoniae D39V [5], first compound 5 µg/mL, partner 0.01 µg/mL	0.88
S. pneumoniae D39V [5], first compound 5 µg/mL, partner 0.02 µg/mL	0.855
S. pneumoniae D39V [5], first compound 5 µg/mL, partner 0.0312 µg/mL	0.106
S. pneumoniae D39V [5], first compound 5 µg/mL, partner 0.0625 µg/mL	0.0921
S. pneumoniae D39V [5], first compound 5 µg/mL, partner 0.125 µg/mL	0.0302

fitness, S. aureus DSM 20231 [6], one replicate
Conditions	first compound 0.781 µg/mL	first compound 1.562 µg/mL	first compound 3.124 µg/mL
partner 0.06 µg/mL	0.655	0.585	0.465
partner 0.12 µg/mL	0.46	0.403	0.247
